Experimental findings from PubChem BioAssay (NCI) are described below.

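Growth conditions: 96-well plates. Treatment: test compound, 48 hours, 5 concentrations. Analysis: linear interpolation between bracketing concentrations; unreached endpoints set to highest concentration. The concentration for 50% growth inhibition is given as GI50. TGI: total growth inhibition.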

In one assay the test system is RPMI-8226 leukemia. The assay is described as follows: DTP human tumour cell line panel, 48 h.
Usually TGI stands for the concentration at which net growth stops. Read a high TGI as lower sensitivity of the cells. Consider `O=C1C=C(Cl)C(=O)C(c2ccc(Cl)cc2)=C1`, for which the TGI worked out at 83.8 µM.
The same measure, in the same setting: in the case of `O=C1C2C(C(=O)N1OS(=O)(=O)c1ccccc1)N(Cc1ccccc1)C(=O)N2Cc1ccccc1` (centres undefined) it was greater than 100 µM.
Broadly, the GI50 is the concentration at which growth is held to half of that of the control. For `COc1cc(-c2nn(-c3ccc(NC(=O)c4ccc(Cl)c(C(F)(F)F)c4)cc3)cc2-c2ccncc2)ccc1Cl`, the GI50 is 1.79 µM and the TGI is 6.47 µM.
The matching figures for `O=C(Nc1ccccc1OC(F)(F)F)Nc1n[nH]c2ccccc12`: 5.2 µM and 53.1 µM.
The matching figures for `O=C(/C=C/C12c3ccccc3C(c3ccccc31)C1C(=O)NC(=O)C12)c1ccncc1` (centres undefined): 2.11 µM and 5.48 µM.
Turning to `O=C1C(=O)N(c2ccc(Cl)cc2Cl)C(=O)C(=O)C1c1nc2ccccc2s1`, the TGI is greater than 100 µM.
As to `O=CN/C=C/c1cc(O)ccc1O`, the TGI was 78.2 µM.
For the molecule `Cn1cc(C2=C(c3cn(C)c4ncccc34)C(=O)NC2=O)c2ccccc21`, the GI50 is 9.04 µM and the concentration for total growth inhibition (TGI) was greater than 23.2 µM.
For `O=C1/C(=C/c2cccc([N+](=O)[O-])c2)COc2ccc(O)cc21`, in that order: 0.236 µM and 0.604 µM.
For `Clc1ccc2c(NCCCCNc3nc(N4CCCCC4)nc4ccccc34)ccnc2c1`, in that order: 1.46 µM and 3.94 µM.
The matching figures for `COc1cc(/C=N/NC(=O)c2ccc(C(F)(F)F)nc2Nc2ccc(Cl)cc2C)ccc1O`: 2.11 µM and 6.1 µM.
For the molecule `O=C1CC(c2ccc3c(c2)OCO3)Nc2ccccc21` (centres undefined), the GI50 was 3.05 µM and the total growth inhibition concentration (TGI) was found to be 13.3 µM.
For `O=C1C(Cl)=C(Nc2cccc(Cl)c2)C(=O)N1Cc1ccc(Cl)cc1Cl`, in that order: 3.18 µM and 15.4 µM.

The next assay deals with RXF 393 renal. Nature of the assay: DTP human tumour cell line panel, 48 h.
`O=C1C=C(Cl)C(=O)C(c2ccc(Cl)cc2)=C1` came in with a TGI of 34 µM.
The same measure, in the same setting: in the case of `O=C1C2C(C(=O)N1OS(=O)(=O)c1ccccc1)N(Cc1ccccc1)C(=O)N2Cc1ccccc1` (centres undefined) it was greater than 100 µM.
Regarding `COc1cc(-c2nn(-c3ccc(NC(=O)c4ccc(Cl)c(C(F)(F)F)c4)cc3)cc2-c2ccncc2)ccc1Cl`, the GI50 was 0.461 µM and the TGI stood at 1.61 µM.
Turning to `O=C(Nc1ccccc1OC(F)(F)F)Nc1n[nH]c2ccccc12`, the GI50 is 24.4 µM and the TGI was greater than 100 µM.
Consider `O=C(/C=C/C12c3ccccc3C(c3ccccc31)C1C(=O)NC(=O)C12)c1ccncc1` (centres undefined), for which the GI50 was 1.74 µM and the TGI stood at 3.27 µM.
Regarding `O=C1C(=O)N(c2ccc(Cl)cc2Cl)C(=O)C(=O)C1c1nc2ccccc2s1`, the total growth inhibition concentration (TGI) was greater than 100 µM.
The molecule `O=CN/C=C/c1cc(O)ccc1O` registered a concentration for total growth inhibition (TGI) of 26.3 µM.
`Cn1cc(C2=C(c3cn(C)c4ncccc34)C(=O)NC2=O)c2ccccc21`: the GI50 was 3.8 µM and the TGI was found to be 10.7 µM.
For the molecule `O=C1/C(=C/c2cccc([N+](=O)[O-])c2)COc2ccc(O)cc21`, the GI50 was 1.73 µM and the TGI is 3.28 µM.
The matching figures for `Clc1ccc2c(NCCCCNc3nc(N4CCCCC4)nc4ccccc34)ccnc2c1`: 1.66 µM and 3.37 µM.
As to `COc1cc(/C=N/NC(=O)c2ccc(C(F)(F)F)nc2Nc2ccc(Cl)cc2C)ccc1O`, the GI50 is 3.2 µM and the TGI stood at 14.3 µM.
For `O=C1CC(c2ccc3c(c2)OCO3)Nc2ccccc21` (centres undefined), in that order: 11.7 µM and 28.3 µM.
The matching figures for `O=C1C(Cl)=C(Nc2cccc(Cl)c2)C(=O)N1Cc1ccc(Cl)cc1Cl`: 0.181 µM and 3.83 µM.

For a further assay, the system named is SF-268 CNS. Nature of the assay: DTP human tumour cell line panel, 48 h.
Turning to `O=C1C=C(Cl)C(=O)C(c2ccc(Cl)cc2)=C1`, the TGI was 42.3 µM.
Regarding `O=C1C2C(C(=O)N1OS(=O)(=O)c1ccccc1)N(Cc1ccccc1)C(=O)N2Cc1ccccc1` (centres undefined), the TGI is greater than 100 µM.
As for `COc1cc(-c2nn(-c3ccc(NC(=O)c4ccc(Cl)c(C(F)(F)F)c4)cc3)cc2-c2ccncc2)ccc1Cl`, the GI50 was 4.03 µM and the TGI is greater than 100 µM.
The matching figures for `O=C(Nc1ccccc1OC(F)(F)F)Nc1n[nH]c2ccccc12`: 16.2 µM and greater than 100 µM.
For `O=C(/C=C/C12c3ccccc3C(c3ccccc31)C1C(=O)NC(=O)C12)c1ccncc1` (centres undefined), in that order: 2.46 µM and 8.48 µM.
In the case of `O=C1C(=O)N(c2ccc(Cl)cc2Cl)C(=O)C(=O)C1c1nc2ccccc2s1`, the TGI is greater than 100 µM.
The same measure, in the same setting: in the case of `O=CN/C=C/c1cc(O)ccc1O` it was 37.5 µM.
As to `Cn1cc(C2=C(c3cn(C)c4ncccc34)C(=O)NC2=O)c2ccccc21`, the GI50 is 9.13 µM and the TGI was greater than 25 µM.
The matching figures for `O=C1/C(=C/c2cccc([N+](=O)[O-])c2)COc2ccc(O)cc21`: 2.86 µM and 10.3 µM.
For `Clc1ccc2c(NCCCCNc3nc(N4CCCCC4)nc4ccccc34)ccnc2c1`, in that order: 1.84 µM and 7.56 µM.
In the case of `COc1cc(/C=N/NC(=O)c2ccc(C(F)(F)F)nc2Nc2ccc(Cl)cc2C)ccc1O`, the GI50 is 1.78 µM and the TGI turned out to be 13.3 µM.
For `O=C1CC(c2ccc3c(c2)OCO3)Nc2ccccc21` (centres undefined), in that order: 10.4 µM and 35.6 µM.
Consider `O=C1C(Cl)=C(Nc2cccc(Cl)c2)C(=O)N1Cc1ccc(Cl)cc1Cl`, for which the GI50 is 1.37 µM and the TGI came to 25 µM.

For a further assay, the system named is SN12C renal. The assay is described as follows: DTP human tumour cell line panel, 48 h.
`O=C1C=C(Cl)C(=O)C(c2ccc(Cl)cc2)=C1`: the TGI turned out to be 44.4 µM.
In the case of `O=C1C2C(C(=O)N1OS(=O)(=O)c1ccccc1)N(Cc1ccccc1)C(=O)N2Cc1ccccc1` (centres undefined), the TGI is greater than 100 µM.
As to `COc1cc(-c2nn(-c3ccc(NC(=O)c4ccc(Cl)c(C(F)(F)F)c4)cc3)cc2-c2ccncc2)ccc1Cl`, the GI50 is 4.64 µM and the TGI is greater than 100 µM.
For `O=C(Nc1ccccc1OC(F)(F)F)Nc1n[nH]c2ccccc12`, in that order: 72.5 µM and greater than 100 µM.
The matching figures for `O=C(/C=C/C12c3ccccc3C(c3ccccc31)C1C(=O)NC(=O)C12)c1ccncc1` (centres undefined): 2.55 µM and 12 µM.
Turning to `O=C1C(=O)N(c2ccc(Cl)cc2Cl)C(=O)C(=O)C1c1nc2ccccc2s1`, the TGI is greater than 100 µM.
For the molecule `O=CN/C=C/c1cc(O)ccc1O`, the total growth inhibition concentration (TGI) turned out to be 31.3 µM.
As for `Cn1cc(C2=C(c3cn(C)c4ncccc34)C(=O)NC2=O)c2ccccc21`, the GI50 was 6.9 µM and the TGI was greater than 25 µM.
For `O=C1/C(=C/c2cccc([N+](=O)[O-])c2)COc2ccc(O)cc21`, in that order: 1.79 µM and 3.47 µM.
The matching figures for `Clc1ccc2c(NCCCCNc3nc(N4CCCCC4)nc4ccccc34)ccnc2c1`: 2.78 µM and 12.7 µM.
The matching figures for `COc1cc(/C=N/NC(=O)c2ccc(C(F)(F)F)nc2Nc2ccc(Cl)cc2C)ccc1O`: 2.97 µM and 16.5 µM.
As for `O=C1CC(c2ccc3c(c2)OCO3)Nc2ccccc21` (centres undefined), the GI50 is 6.28 µM and the TGI was 23 µM.
The matching figures for `O=C1C(Cl)=C(Nc2cccc(Cl)c2)C(=O)N1Cc1ccc(Cl)cc1Cl`: 0.252 µM and 12.8 µM.

The subject of the next assay is U251 CNS. Nature of the assay: DTP human tumour cell line panel, 48 h.
`O=C1C=C(Cl)C(=O)C(c2ccc(Cl)cc2)=C1` showed a TGI of 30 µM.
The molecule `O=C1C2C(C(=O)N1OS(=O)(=O)c1ccccc1)N(Cc1ccccc1)C(=O)N2Cc1ccccc1` (centres undefined) came in with a TGI greater than 100 µM.
As to `COc1cc(-c2nn(-c3ccc(NC(=O)c4ccc(Cl)c(C(F)(F)F)c4)cc3)cc2-c2ccncc2)ccc1Cl`, the GI50 is 2.08 µM and the TGI came out at 56.7 µM.
In the case of `O=C(Nc1ccccc1OC(F)(F)F)Nc1n[nH]c2ccccc12`, the GI50 is 31.1 µM and the TGI was greater than 100 µM.
For `O=C(/C=C/C12c3ccccc3C(c3ccccc31)C1C(=O)NC(=O)C12)c1ccncc1` (centres undefined), in that order: 1.62 µM and 3.34 µM.
In turn, `O=C1C(=O)N(c2ccc(Cl)cc2Cl)C(=O)C(=O)C1c1nc2ccccc2s1` yielded a TGI greater than 100 µM.
Take `O=CN/C=C/c1cc(O)ccc1O`: the concentration for total growth inhibition (TGI) is greater than 66 µM.
As for `Cn1cc(C2=C(c3cn(C)c4ncccc34)C(=O)NC2=O)c2ccccc21`, the GI50 is 7.27 µM and the TGI is greater than 25 µM.
`O=C1/C(=C/c2cccc([N+](=O)[O-])c2)COc2ccc(O)cc21`: the GI50 is 1.56 µM and the TGI amounted to 2.9 µM.
For `Clc1ccc2c(NCCCCNc3nc(N4CCCCC4)nc4ccccc34)ccnc2c1`, in that order: 2.02 µM and 4.56 µM.
With `COc1cc(/C=N/NC(=O)c2ccc(C(F)(F)F)nc2Nc2ccc(Cl)cc2C)ccc1O`, the GI50 was 2.09 µM and the TGI was found to be 10.6 µM.
The matching figures for `O=C1CC(c2ccc3c(c2)OCO3)Nc2ccccc21` (centres undefined): 8.46 µM and 24.7 µM.
With `O=C1C(Cl)=C(Nc2cccc(Cl)c2)C(=O)N1Cc1ccc(Cl)cc1Cl`, the TGI was 13.7 µM.
